Experimental data: publication PMC10879502, “Linking ATP and allosteric sites to achieve superadditive binding with bivalent EGFR kinase inhibitors” (Communications Chemistry, 2024)

Columns and labels:
CSNK1G1 = biological target: T1, CSNK1G1 (Homo sapiens, UniProt Q9HCP0); assay: KINOMEscan; type: binding; conditions: 1 μM
T1 construct: purchased Eurofins DiscoverX Corporation

NEK3 = biological target: T2, NEK3 (Homo sapiens, UniProt P51956); assay: KINOMEscan; type: binding; conditions: 1 μM
T2 construct: purchased Eurofins DiscoverX Corporation

AAK1 = biological target: T3, AAK1 (Homo sapiens, UniProt Q2M2I8); assay: KINOMEscan; type: binding; conditions: 1 μM
T3 construct: purchased Eurofins DiscoverX Corporation

YANK3 = YANK3 (Homo sapiens, UniProt Q86UX6); assay: KINOMEscan; type: binding; conditions: 1 μM
SYK = biological target: T4, SYK (Homo sapiens, UniProt P43405); assay: KINOMEscan; type: binding; conditions: 1 μM
T4 construct: purchased Eurofins DiscoverX Corporation

PIM1 = PIM1 (Homo sapiens, UniProt P11309); assay: KINOMEscan; type: binding; conditions: 1 μM
CDC2L1 = biological target: T5, CDC2L1 (Homo sapiens, UniProt P21127); assay: KINOMEscan; type: binding; conditions: 1 μM
T5 construct: purchased Eurofins DiscoverX Corporation (KINOMEscan)

TYRO3 = TYRO3 (Homo sapiens, UniProt Q06418); assay: KINOMEscan; type: binding; conditions: 1 μM
[1] = biological target: T6, ABL1(Q252H)-nonphosphorylated (Homo sapiens, UniProt P00519, Q252H); assay: KINOMEscan; type: binding; conditions: 1 μM
T6 construct: purchased Eurofins DiscoverX Corporation

CDK3 = CDK3 (Homo sapiens, UniProt Q00526); assay: KINOMEscan; type: binding; conditions: 1 μM
MYO3B = biological target: T7, MYO3B (Homo sapiens, UniProt Q8WXR4); assay: KINOMEscan; type: binding; conditions: 1 μM
T7 construct: purchased Eurofins DiscoverX Corporation

DMPK2 = biological target: T8, DMPK2 (Homo sapiens, UniProt Q6DT37); assay: KINOMEscan; type: binding; conditions: 1 μM
T8 construct: purchased Eurofins DiscoverX Corporation

ACVR2A = ACVR2A (Homo sapiens, UniProt P27037); assay: KINOMEscan; type: binding; conditions: 1 μM
CDC2L2 = biological target: T9, CDC2L2 (Homo sapiens, UniProt Q9UQ88); assay: KINOMEscan; type: binding; conditions: 1 μM
T9 construct: purchased Eurofins DiscoverX Corporation (KINOMEscan)

PFPK5(P.falciparum) = PFPK5(P.falciparum) (Plasmodium falciparum, UniProt P61075); assay: KINOMEscan; type: binding; conditions: 1 μM
TTK = TTK (Homo sapiens, UniProt P33981); assay: KINOMEscan; type: binding; conditions: 1 μM
MST1 = biological target: T10, MST1 (Homo sapiens, UniProt Q13043); assay: KINOMEscan; type: binding; conditions: 1 μM
T10 construct: purchased Eurofins DiscoverX Corporation

NIK = NIK (Homo sapiens, UniProt Q99558); assay: KINOMEscan; type: binding; conditions: 1 μM
MINK = biological target: T11, MINK (Homo sapiens, UniProt Q8N4C8); assay: KINOMEscan; type: binding; conditions: 1 μM
T11 construct: purchased Eurofins DiscoverX Corporation

[2] = biological target: RSK4(Kin.Dom.2-C-terminal) (Homo sapiens, UniProt Q9UK32); assay: KINOMEscan; type: binding; conditions: 1 μM
DCAMKL1 = biological target: T12, DCAMKL1 (Homo sapiens, UniProt O15075); assay: KINOMEscan; type: binding; conditions: 1 μM
T12 construct: purchased Eurofins DiscoverX Corporation

INSRR = biological target: T13, INSRR (Homo sapiens, UniProt P14616); assay: KINOMEscan; type: binding; conditions: 1 μM
T13 construct: purchased Eurofins DiscoverX (KINOMEscan)

p38-alpha = p38-alpha (Homo sapiens, UniProt Q16539); assay: KINOMEscan; type: binding; conditions: 1 μM
[3] = biological target: RSK2(Kin.Dom.1-N-terminal) (Homo sapiens, UniProt P51812); assay: KINOMEscan; type: binding; conditions: 1 μM
[4] = Metabolic stability in human liver microsomes; type: in vitro ADME; conditions: up to 120 min
Protocol: Pooled liver microsomes from humans (male) were purchased from Sekisui XenoTech, LLC, Kansas City, KS, USA. Metabolic stability assays were performed in the presence of an NADPH-regenerating system consisting of 5 mM glucose-6-phosphate, 5 U/mL glucose-6-phosphate dehydrogenase, and 1 mM NADP^+. Liver microsomes (20 mg/mL), NADPH-regenerating system, and 4 mM MgCl2·6 H2O in 0.1 M TRIS-HCl-buffer (pH 7.4) were preincubated for 5 min at 37 °C and 750 rpm on a shaker. The reaction was started by adding the preheated compound at 10 mM resulting in a final concentration of 0.1 mM. The reaction was quenched at selected time points (0, 10, 20, 30, 60, and 120 min) by pipetting 100 μL of internal standard (ketoprofen) at a concentration of 150 μM in acetonitrile. The samples were vortexed for 30 s and centrifuged (21910 relative centrifugal force, 4 °C, 20 min). The supernatant was used directly for LC-MS analysis. All compound incubations were conducted at least in triplicates. Additionally, a negative control containing BSA (20 mg/mL) instead of liver microsomes and a positive control using verapamil instead of compound were performed. A limit of 1% organic solvent during incubation was not exceeded. […]

[5] = biological target: RPS6KA4(Kin.Dom.1-N-terminal) (Homo sapiens, UniProt O75676); assay: KINOMEscan; type: binding; conditions: 1 μM
OSR1 = OSR1 (Homo sapiens, UniProt O95747); assay: KINOMEscan; type: binding; conditions: 1 μM
NIM1 = NIM1 (Homo sapiens, UniProt Q8IY84); assay: KINOMEscan; type: binding; conditions: 1 μM
Sequence of NIM1 (Q8IY84 whole entry): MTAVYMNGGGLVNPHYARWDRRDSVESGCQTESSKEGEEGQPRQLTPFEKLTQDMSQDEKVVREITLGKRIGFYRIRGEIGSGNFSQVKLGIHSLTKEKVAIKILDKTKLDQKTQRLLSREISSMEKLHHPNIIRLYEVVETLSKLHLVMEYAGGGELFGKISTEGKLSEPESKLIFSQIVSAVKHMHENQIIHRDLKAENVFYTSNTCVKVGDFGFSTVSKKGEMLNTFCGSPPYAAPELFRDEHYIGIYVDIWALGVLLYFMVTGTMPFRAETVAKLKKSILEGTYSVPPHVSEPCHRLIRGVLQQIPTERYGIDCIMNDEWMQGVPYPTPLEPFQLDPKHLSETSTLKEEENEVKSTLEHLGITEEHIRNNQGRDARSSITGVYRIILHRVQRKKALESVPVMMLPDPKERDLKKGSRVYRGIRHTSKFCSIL

T2 sequence (P51956 whole entry): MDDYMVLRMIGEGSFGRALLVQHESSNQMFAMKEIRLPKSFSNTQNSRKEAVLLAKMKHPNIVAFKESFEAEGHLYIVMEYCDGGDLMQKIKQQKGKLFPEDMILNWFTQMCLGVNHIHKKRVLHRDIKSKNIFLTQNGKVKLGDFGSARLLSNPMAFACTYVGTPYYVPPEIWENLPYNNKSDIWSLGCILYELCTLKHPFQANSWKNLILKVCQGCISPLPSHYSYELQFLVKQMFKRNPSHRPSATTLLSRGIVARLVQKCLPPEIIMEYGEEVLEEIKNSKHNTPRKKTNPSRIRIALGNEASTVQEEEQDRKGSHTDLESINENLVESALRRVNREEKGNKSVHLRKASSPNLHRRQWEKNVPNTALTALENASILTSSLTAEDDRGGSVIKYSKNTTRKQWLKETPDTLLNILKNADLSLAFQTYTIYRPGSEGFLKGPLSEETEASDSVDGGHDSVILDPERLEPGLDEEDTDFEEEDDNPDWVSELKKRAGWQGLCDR
T3 sequence (Q2M2I8 whole entry): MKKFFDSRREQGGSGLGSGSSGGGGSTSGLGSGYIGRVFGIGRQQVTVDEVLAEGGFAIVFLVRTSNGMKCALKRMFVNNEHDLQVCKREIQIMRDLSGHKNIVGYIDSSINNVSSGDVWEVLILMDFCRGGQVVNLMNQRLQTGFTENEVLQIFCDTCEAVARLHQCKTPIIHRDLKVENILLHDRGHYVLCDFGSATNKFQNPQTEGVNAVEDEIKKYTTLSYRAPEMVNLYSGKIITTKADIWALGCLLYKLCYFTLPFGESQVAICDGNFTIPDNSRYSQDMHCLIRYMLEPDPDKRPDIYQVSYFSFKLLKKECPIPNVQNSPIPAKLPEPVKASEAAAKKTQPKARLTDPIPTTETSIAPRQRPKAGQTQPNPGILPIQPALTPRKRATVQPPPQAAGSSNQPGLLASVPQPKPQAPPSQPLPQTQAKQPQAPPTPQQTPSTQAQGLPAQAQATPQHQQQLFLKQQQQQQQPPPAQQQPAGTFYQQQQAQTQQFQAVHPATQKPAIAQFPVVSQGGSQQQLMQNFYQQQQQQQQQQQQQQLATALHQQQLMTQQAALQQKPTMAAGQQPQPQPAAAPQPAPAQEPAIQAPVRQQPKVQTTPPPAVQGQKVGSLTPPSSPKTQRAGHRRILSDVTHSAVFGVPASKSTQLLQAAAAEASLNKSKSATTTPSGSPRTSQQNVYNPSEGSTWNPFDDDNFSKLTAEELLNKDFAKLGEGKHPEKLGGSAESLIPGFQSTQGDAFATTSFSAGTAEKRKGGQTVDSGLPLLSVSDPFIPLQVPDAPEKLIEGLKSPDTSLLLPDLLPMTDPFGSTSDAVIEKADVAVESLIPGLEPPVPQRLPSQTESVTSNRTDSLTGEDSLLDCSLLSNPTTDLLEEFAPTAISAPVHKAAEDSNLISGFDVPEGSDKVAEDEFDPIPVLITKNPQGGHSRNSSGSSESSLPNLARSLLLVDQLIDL
Sequence of RSK4(Kin.Dom.2-C-terminal) (Q9UK32 426-683 limits assumed): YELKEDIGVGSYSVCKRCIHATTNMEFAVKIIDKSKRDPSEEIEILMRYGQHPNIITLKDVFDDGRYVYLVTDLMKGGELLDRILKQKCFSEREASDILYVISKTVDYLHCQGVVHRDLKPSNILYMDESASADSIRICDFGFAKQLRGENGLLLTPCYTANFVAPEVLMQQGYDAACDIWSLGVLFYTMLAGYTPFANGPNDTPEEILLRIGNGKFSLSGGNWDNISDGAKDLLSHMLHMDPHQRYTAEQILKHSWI
T10 sequence (Q13043 whole entry): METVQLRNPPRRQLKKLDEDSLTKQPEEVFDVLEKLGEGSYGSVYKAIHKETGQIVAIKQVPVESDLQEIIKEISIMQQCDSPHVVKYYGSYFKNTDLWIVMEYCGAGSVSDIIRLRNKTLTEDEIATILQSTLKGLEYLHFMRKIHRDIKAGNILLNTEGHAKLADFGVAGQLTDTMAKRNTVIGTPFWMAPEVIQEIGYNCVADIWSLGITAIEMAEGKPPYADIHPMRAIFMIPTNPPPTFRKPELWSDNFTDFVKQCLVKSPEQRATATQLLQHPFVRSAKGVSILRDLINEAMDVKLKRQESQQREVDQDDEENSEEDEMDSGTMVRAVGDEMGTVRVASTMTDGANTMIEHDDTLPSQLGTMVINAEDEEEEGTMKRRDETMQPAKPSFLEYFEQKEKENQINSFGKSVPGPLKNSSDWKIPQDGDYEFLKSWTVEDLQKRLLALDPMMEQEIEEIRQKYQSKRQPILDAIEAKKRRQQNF
Sequence of ACVR2A (P27037 20-513): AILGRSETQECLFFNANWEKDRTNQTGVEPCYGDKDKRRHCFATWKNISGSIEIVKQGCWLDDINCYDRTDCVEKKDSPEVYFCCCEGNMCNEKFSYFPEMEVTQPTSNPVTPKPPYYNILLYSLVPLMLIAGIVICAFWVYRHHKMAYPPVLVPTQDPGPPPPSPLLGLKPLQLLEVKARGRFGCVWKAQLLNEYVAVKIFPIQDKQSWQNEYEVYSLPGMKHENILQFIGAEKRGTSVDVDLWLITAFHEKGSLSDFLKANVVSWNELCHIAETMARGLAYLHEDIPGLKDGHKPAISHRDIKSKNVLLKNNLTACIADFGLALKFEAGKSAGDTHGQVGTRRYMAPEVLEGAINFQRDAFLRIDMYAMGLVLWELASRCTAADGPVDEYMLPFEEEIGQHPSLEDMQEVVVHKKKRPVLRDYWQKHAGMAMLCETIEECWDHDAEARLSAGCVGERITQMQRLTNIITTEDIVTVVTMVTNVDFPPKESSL
T8 sequence (Q6DT37 whole entry): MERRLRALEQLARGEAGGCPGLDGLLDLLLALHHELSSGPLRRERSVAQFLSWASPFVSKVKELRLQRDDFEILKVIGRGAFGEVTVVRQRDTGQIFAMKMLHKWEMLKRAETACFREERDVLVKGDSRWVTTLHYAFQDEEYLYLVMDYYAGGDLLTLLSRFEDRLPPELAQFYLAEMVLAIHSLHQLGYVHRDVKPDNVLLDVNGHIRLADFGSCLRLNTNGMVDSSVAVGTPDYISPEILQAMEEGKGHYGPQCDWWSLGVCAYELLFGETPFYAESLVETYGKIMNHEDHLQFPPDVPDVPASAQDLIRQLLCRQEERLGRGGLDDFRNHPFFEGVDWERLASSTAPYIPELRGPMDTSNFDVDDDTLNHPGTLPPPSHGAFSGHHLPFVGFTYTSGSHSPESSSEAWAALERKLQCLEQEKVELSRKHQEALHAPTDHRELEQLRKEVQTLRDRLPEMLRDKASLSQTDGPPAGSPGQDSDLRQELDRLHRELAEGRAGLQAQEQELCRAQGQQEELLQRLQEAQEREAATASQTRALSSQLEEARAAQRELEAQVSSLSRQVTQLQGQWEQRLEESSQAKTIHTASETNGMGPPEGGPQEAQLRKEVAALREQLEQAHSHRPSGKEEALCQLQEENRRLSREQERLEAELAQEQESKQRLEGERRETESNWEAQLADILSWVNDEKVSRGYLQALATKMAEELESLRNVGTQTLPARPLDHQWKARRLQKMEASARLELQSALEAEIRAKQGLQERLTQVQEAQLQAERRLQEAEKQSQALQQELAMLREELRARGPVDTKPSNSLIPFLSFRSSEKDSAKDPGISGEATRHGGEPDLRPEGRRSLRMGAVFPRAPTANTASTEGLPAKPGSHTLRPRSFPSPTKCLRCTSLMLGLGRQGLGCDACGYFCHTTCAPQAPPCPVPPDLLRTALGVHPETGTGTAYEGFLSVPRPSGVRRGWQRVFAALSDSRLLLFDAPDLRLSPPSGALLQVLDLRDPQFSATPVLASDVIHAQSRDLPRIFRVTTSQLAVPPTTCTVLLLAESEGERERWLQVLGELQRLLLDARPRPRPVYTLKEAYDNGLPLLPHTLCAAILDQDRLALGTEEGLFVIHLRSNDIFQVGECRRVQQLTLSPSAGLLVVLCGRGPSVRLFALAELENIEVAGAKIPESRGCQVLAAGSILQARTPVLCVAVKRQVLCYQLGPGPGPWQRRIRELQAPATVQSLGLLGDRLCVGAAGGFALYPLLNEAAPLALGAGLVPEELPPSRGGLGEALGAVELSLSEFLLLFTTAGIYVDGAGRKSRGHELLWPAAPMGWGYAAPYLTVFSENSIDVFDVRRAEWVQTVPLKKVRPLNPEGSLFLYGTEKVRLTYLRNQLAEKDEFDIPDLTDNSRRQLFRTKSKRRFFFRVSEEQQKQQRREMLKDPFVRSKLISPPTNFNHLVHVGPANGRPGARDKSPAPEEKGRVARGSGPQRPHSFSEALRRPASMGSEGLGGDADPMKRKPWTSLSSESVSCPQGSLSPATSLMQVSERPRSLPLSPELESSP
Sequence of PIM1 (P11309 whole entry): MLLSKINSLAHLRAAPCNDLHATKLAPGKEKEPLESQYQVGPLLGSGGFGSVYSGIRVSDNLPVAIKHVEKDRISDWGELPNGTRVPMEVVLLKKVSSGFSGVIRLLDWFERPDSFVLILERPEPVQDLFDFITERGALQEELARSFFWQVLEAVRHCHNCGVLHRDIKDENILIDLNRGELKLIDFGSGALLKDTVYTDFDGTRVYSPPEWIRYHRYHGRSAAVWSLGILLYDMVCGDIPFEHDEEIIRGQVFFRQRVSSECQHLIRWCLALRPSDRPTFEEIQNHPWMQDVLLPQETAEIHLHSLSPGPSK

C=CC(=O)Nc1ccc(OC)c(Nc2cc(-c3[nH]c(CC)nc3-c3cccc(NC(=O)c4cccc5c4NC(=O)c4ccccc4N5)c3)ccn2)c1 [Compound 4]
POC (CSNK1G1): 93% of control | POC (NEK3): 100% of control | POC (AAK1): 100% of control | POC (YANK3): 96% of control | POC (SYK): 63% of control | POC (PIM1): 94% of control | POC (CDC2L1): 100% of control | POC (TYRO3): 32% of control | POC [1]: 100% of control | POC (CDK3): 100% of control | POC (MYO3B): 31% of control | POC (DMPK2): 0% of control | POC (ACVR2A): 77% of control | POC (CDC2L2): 91% of control | POC (PFPK5(P.falciparum)): 100% of control | POC (TTK): 72% of control | POC (MST1): 6% of control | POC (NIK): 100% of control | POC (MINK): 10% of control | POC [2]: 80% of control | POC (DCAMKL1): 100% of control | POC (INSRR): 87% of control | POC (p38-alpha): 46% of control | POC [3]: 100% of control | metabolic stability in liver microsomes [4]: metabolically stable | POC [5]: 96% of control | POC (OSR1): 89% of control | POC (NIM1): 78% of control
